The target in test [1] is human recombinant 11β-HSD1 (Homo sapiens, UniProt P28845). Nature of the test: Test for measuring human 11β-HSD1 inhibitory activity (HTRF cortisol detection). Format: biochemical. The note with it: human recombinant enzyme, 200 nM cortisone, 40 μM NADPH, pH 6.6, room temperature 1 hour; average of 3 wells. As to the method: (§1) (1) Test for Measuring Human 11β-HSD1/11β-HSD2 Inhibitory Activity
(§2) The procedure for measuring human 11β-HSD1/11β-HSD2 inhibitory activity is as follows. The enzymatic reaction and measurement were performed using a 384-well plate. The reaction was carried out by adding a test compound in various concentrations to a reaction solution containing a 10 mM phosphate buffer solution (pH 6.6), 200 nM cortisone, 40 μM reduced nicotinamide adenine dinucleotide phosphate (NADPH), and human recombinant 11β-HSD1 and then incubating the mixture at room temperature for 1 hour (10 μl/well). The test compound was dissolved in dimethyl sulfoxide (DMSO) to prepare a sample so that the DMSO concentration in the reaction solution became 1%. After the enzymatic reaction, an enzymatic inhibitory activity was measured by detecting cortisol using homogeneous time-resolved fluorescence (HTRF). XL-665-labeled cortisol containing 400 μM carbenoxolone and cryptate-labeled cortisol antibody (CIS Bio International) were added in each amount of 5 μl/well, followed by incubation at room temperature for 2 hours. Then, fluorescence intensity was measured using a fluorophotometer (product name: Discovery, PerkinElmer) and an enzymatic inhibitory activity was calculated based on two-wavelength fluorescence intensity ratio (665 nm/620 nm).
(§3) The results of the measurement were calculated as an average of the values for 3 wells obtained under the same conditions.
(In general: TR-FRET usually uses a lanthanide donor and a delayed reading to cut background.)

The target of test [2] is T1, human recombinant 11β-HSD2 (Homo sapiens, UniProt P80365).
T1 sequence (P80365 1-405): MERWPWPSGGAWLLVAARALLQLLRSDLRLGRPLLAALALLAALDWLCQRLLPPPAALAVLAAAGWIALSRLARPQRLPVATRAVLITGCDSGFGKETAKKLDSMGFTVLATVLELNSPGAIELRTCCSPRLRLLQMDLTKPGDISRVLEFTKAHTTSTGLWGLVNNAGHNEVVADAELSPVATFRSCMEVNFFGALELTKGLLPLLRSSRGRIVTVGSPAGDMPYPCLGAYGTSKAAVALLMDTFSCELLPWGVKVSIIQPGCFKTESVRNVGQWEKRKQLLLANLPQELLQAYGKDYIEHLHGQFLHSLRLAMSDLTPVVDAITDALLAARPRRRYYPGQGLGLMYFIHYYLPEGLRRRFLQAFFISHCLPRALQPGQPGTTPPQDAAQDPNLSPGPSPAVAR
Nature of the test: Test for measuring human 11β-HSD2 inhibitory activity (HTRF cortisol detection). The class given is biochemical. The note with it: human recombinant enzyme, 200 nM cortisol, 200 μM NAD, pH 8.0, 37° C. 2 hours; average of 3 wells. The procedure: as §1, §2
The measurement of 11β-HSD2 inhibitory activity was performed in the same manner as in the measurement of 11β-HSD1 inhibitory activity except for enzymatic reaction conditions. The enzymatic reaction was carried out by adding a test compound in various concentrations to a reaction solution containing a 40 mM tris-hydrochloride buffer solution (Tris-HCl) (pH 8.0), 200 nM cortisol, 200 μM nicotinamide adenine dinucleotide (NAD), and human recombinant 11β-HSD2 and then incubating the mixture at 37° C. for 2 hours (10 μl/well).
as §3

In another test the test system is ob/ob mice. Nature of the test: ob/ob mouse blood-glucose lowering test. The class given is in vivo. The note with it: male ob/ob mice, 30 mg/kg bid orally for 9 days, measured 12 hours after final administration, non-fasting, n=6. The procedure: (2) ob/ob Mouse Blood-Glucose Lowering Test
A compound solution was prepared using 6% 2-hydroxypropyl-p-cyclodextrin as a solvent. Using 8 weeks-old male ob/ob mice (blood-glucose level of 300 mg or more), blood-glucose levels were measured under non-fasting conditions and then the mice were divided into groups so that the blood-glucose levels became even among the groups. The test compound was orally administered twice per day repeatedly for 9 days (30 mg/kg, bid) and a blood-sugar level was measured 12 hours after final administration (n=6). The blood-glucose level was measured by subjecting a collected blood to protein-removing treatment and then conducting colorimetric quantitative determination of a glucose level (mg/dL) in the supernatant.

A value given as a limit tells only on which side of the number the result lay.

Chain of human recombinant 11β-HSD1 (P28845 whole entry): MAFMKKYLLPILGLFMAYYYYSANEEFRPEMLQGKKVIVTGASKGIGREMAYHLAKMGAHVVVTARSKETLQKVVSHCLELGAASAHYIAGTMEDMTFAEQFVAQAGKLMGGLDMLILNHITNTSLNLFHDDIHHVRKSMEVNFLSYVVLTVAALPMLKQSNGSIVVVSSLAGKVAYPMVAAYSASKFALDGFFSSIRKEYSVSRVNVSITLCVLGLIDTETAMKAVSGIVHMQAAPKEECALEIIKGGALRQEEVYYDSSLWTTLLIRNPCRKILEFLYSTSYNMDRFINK

A word on the IC50: it is the concentration needed to halve the response being measured. For the compound `c1csc(C2(c3nnc4n3CCCCC4)CCCC2)c1` [Example 60], the half-maximal inhibitory concentration (IC50) is 0.013 µM in test [1] and above 3 µM in test [2].
In the case of `Clc1ccc(C2(c3nnc4n3CCCCC4)CCCC2)s1` [Example 62], the IC50 in test [1] is 0.0053 µM; in test [2], above 3 µM.
`c1csc(C2(c3nnc4n3CCCCCC4)CCCC2)c1` [Example 68]: the concentration for half-maximal inhibition (IC50) in test [1] is 0.0044 µM; in test [2], above 1 µM. This compound also had a blood-glucose lowering action in the test with ob/ob mice of 32%.
Take `CC(C)(c1cccs1)c1nnc2n1CCCCCC2` [Example 100]: the IC50 is 0.0066 µM in test [1] and above 1 µM in test [2].
`CN(C1(c2nnc(-c3ccccc3Cl)n2C)CCCC1)S(=O)(=O)c1ccccc1` [Example 115]: in test [1], the IC50 is 0.015 µM.
As to `Cn1cccc1C(C)(C)c1nnc(-c2ccccc2Cl)n1C` [Example 158], the IC50 in test [1] was 0.018 µM; in test [2] it was above 3 µM.
As for `Cn1c(-c2ccccc2Cl)nnc1C(C)(C)NC(=O)c1ccccc1` [Example 174], in test [1], the IC50 was 0.06 µM.

For the origin of these results see patent US7776897B2, “Triazole derivative or salt thereof” (Astellas Pharma Inc., priority 2004, dated 2010).
